# From US8343983B2, “Substituted pyrazolo-pyrimidine compounds” (ArQule, Inc., priority 2009, dated 2013)
# Like-named read-outs stand apart in the source and are kept apart here.
# Test system: cancer cells
# Assay: MTS assay: inhibition of cell growth (formazan absorbance at 492 nm after 72 hours with test compound)
# Assay type: cell-based
# Conditions: inhibition class
# Outline: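 DMEM with 1% FBS; cells seeded at 3000/well and grown 18 h at 37 °C, then exposed to compound for 72 h and to MTS/PMS for 4 h. IC50 is the concentration giving a 50% absorbance drop; grades are % inhibition bands.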
# [1] = Homo sapiens, DLD-1 cells, read-out: DLD-1, MTS 72 hours at 10 uM
# [2] = Homo sapiens, KATO III cells, read-out: KATO III, MTS 72 hours at 10 uM
# [3] = Homo sapiens, MDA-MB-231 cells, read-out: MDA-MB-231, MTS 72 hours at 10 uM
# [4] = Homo sapiens, NCI-H1299 cells, read-out: NCI-H1299, MTS 72 hours at 10 uM
# [5] = Homo sapiens, PC-3 cells, read-out: PC-3, MTS 72 hours at 10 uM
# [6] = PACA-2 cells, read-out: PACA-2, MTS 72 hours at 10 uM
SMILES,inhibition at 10 µM [1] [%],inhibition at 10 µM [2] [%],inhibition at 10 µM [3] [%],inhibition at 10 µM [4] [%],inhibition at 10 µM [5] [%],inhibition at 10 µM [6] [%]
"CN1CCC(Nc2nc3c4c(n[nH]c4n2)CCN3c2ccccc2)CC1 [Compound 219, N-(1-methylpiperidin-4-yl)-6-phenyl-2,6,7,8-tetrahydro-1,2,3,5,6-pentaazaacenaphthylen-4-amine]",> 79,> 79,> 79,50 to 79,> 79,> 79
"COc1cccc(CCNc2nc3c4c(n[nH]c4n2)CCN3Cc2ccccc2)c1OC [Compound 39, 6-benzyl-N-[2-(2,3-dimethoxyphenyl)ethyl]-2,6,7,8-tetrahydro-1,2,3,5,6-pentaazaacenaphthylen-4-amine]",< 50,< 50,< 50,< 50,< 50,< 50
"Fc1cccc(CCNc2nc3c4c(n[nH]c4n2)CCN3Cc2ccccc2)c1 [Compound 94, 6-benzyl-N-[2-(3-fluorophenyl)ethyl]-2,6,7,8-tetrahydro-1,2,3,5,6-pentaazaacenaphthylen-4-amine]",< 50,< 50,< 50,< 50,< 50,< 50
"COc1ccc(CN2CCCc3n[nH]c4nc(N5CCN(Cc6ccccc6)CC5)nc2c34)cc1 [Compound 254, 4-(4-benzylpiperazin-1-yl)-6-(4-methoxybenzyl)-6,7,8,9-tetrahydro-2H-1,2,3,5,6-pentaazabenzo[cd]azulene]",> 79,> 79,> 79,> 79,> 79,> 79
"COc1ccc(CN2CCc3n[nH]c4nc(Nc5ccccc5)nc2c34)cc1 [Compound 118, 6-(4-methoxybenzyl)-N-phenyl-2,6,7,8-tetrahydro-1,2,3,5,6-pentaazaacenaphthylen-4-amine]",< 50,< 50,< 50,< 50,< 50,< 50
"O=C(NCCOc1ccccc1)C1CN(Cc2ccccc2)c2nc(NCc3ccccc3)nc3[nH]nc1c23 (stereo not drawn) [Compound 241, 6-benzyl-4-(benzylmino)-N-(2-phenoxyethyl)-2,6,7,8-tetrahydro-1,2,3,5,6-pentaazaacenaphthylene-8-carboxamide]",< 50,< 50,< 50,< 50,< 50,< 50
"COc1ccc(CN2CCCc3n[nH]c4nc(NCc5ccccc5)nc2c34)cc1 [Compound 247, N-benzyl-6-(4-methoxybenzyl)-6,7,8,9-tetrahydro-2H-1,2,3,5,6-pentaazabenzo[cd]azulen-4-amine]",< 50,< 50,< 50,< 50,< 50,< 50
"O=C(NCc1ccc(Cl)cc1)C1CN(Cc2ccccc2)c2nc(NCc3ccccc3)nc3[nH]nc1c23 (stereo not drawn) [Compound 238, 6-benzyl-4-(benzylamino)-N-(4-chlorobenzyl)-2,6,7,8-tetrahydro-1,2,3,5,6-pentaazaacenaphthylene-8-carboxamide]",> 79,> 79,> 79,> 79,> 79,50 to 79
"COc1ccc(CN2CCc3n[nH]c4nc(NCCc5ccc(F)cc5)nc2c34)cc1 [Compound 109, N-[2-(4-fluorophenyl)ethyl]-6-(4-methoxybenzyl)-2,6,7,8-tetrahydro-1,2,3,5,6-pentaazaacenaphthylen-4-amine]",50 to 79,50 to 79,< 50,50 to 79,< 50,50 to 79
"Cc1cccc(N2CCN(c3nc4c5c(n[nH]c5n3)CCN4Cc3ccccc3)CC2)n1 [Compound 27, 6-benzyl-4-[4-(6-methylpyridin-2-yl)piperazin-1-yl]-2,6,7,8-tetrahydro-1,2,3,5,6-pentaazaacenaphthylene]",< 50,< 50,< 50,< 50,< 50,< 50
"c1ccc(CCNc2nc3c4c(n[nH]c4n2)CCN3)cc1 [Compound 128, N-(2-phenylethyl)-2,6,7,8-tetrahydro-1,2,3,5,6-pentaazaacenaphthylen-4-amine]",> 79,> 79,> 79,> 79,> 79,> 79
"COCC(C)Nc1nc2c3c(n[nH]c3n1)CCN2Cc1ccccc1 (stereo not drawn) [Compound 78, 6-benzyl-N-(2-methoxy-1-methylethyl)-2,6,7,8-tetrahydro-1,2,3,5,6-pentaazaacenaphthylen-4-amine]",< 50,< 50,> 79,< 50,> 79,< 50
"COc1ccc(CN2CCc3n[nH]c4nc(N5CCN(Cc6ccccc6)CC5)nc2c34)cc1 [Compound 114, 4-(4-benzylpiperazin-1-yl)-6-(4-methoxybenzyl)-2,6,7,8-tetrahydro-1,2,3,5,6-pentaazaacenaphthylene]",< 50,< 50,< 50,< 50,< 50,< 50
"CCOC(=O)C1CN(Cc2ccccc2)c2nc(SC)nc3[nH]nc1c23 (stereo not drawn) [Compound 222, ethyl 6-benzyl-4-(methylsulfanyl)-2,6,7,8-tetrahydro-1,2,3,5,6-pentaazaacenaphthylene-8-carboxylate]",< 50,< 50,< 50,< 50,< 50,< 50
"COc1cccc(CCNc2nc3c4c(n[nH]c4n2)CCN3Cc2ccccc2)c1 [Compound 36, 6-benzyl-N-[2-(3-methoxyphenyl)ethyl]-2,6,7,8-tetrahydro-1,2,3,5,6-pentaazaacenaphthylen-4-amine]",< 50,< 50,< 50,< 50,< 50,< 50
"c1ccc(CN2CCc3n[nH]c4nc(N5CCc6ccccc6C5)nc2c34)cc1 [Compound 19, 6-benzyl-4-(3,4-dihydroisoquinolin-2(1H)-yl)-2,6,7,8-tetrahydro-1,2,3,5,6-pentaazaacenaphthylene]",< 50,< 50,50 to 79,< 50,50 to 79,< 50
"COc1ccc(CN2CCc3n[nH]c4nc(NCc5cccc(F)c5)nc2c34)cc1 [Compound 113, N-(3-fluorobenzyl)-6-(4-methoxybenzyl)-2,6,7,8-tetrahydro-1,2,3,5,6-pentaazaacenaphthylen-4-amine]",> 79,< 50,50 to 79,< 50,> 79,> 79
"COc1ccc(CN2CCc3n[nH]c4nc(Nc5ccc(N6CCN(C)CC6)cc5)nc2c34)cc1 [Compound 120, 6-(4-methoxybenzyl)-N-[4-(4-methylpiperazin-1-yl)phenyl]-2,6,7,8-tetrahydro-1,2,3,5,6-pentaazaacenaphthylen-4-amine]",> 79,> 79,> 79,50 to 79,> 79,> 79
"OCCN(Cc1ccccc1)c1nc2c3c(n[nH]c3n1)CCN2Cc1ccccc1 [Compound 62, 2-[benzyl(6-benzyl-2,6,7,8-tetrahydro-1,2,3,5,6-pentaazaacenaphthylen-4-yl)amino]ethanol]",< 50,< 50,50 to 79,< 50,< 50,< 50
"c1ccc(N2CCc3n[nH]c4nc(NCc5cccnc5)nc2c34)cc1 [Compound 214, 6-phenyl-N-(pyridin-3-ylmethyl)-2,6,7,8-tetrahydro-1,2,3,5,6-pentaazaacenaphthylen-4-amine]",50 to 79,50 to 79,< 50,50 to 79,< 50,50 to 79
"CS(=O)(=O)c1nc2c3c(n[nH]c3n1)CCN2Cc1ccccc1 [Compound 2, 6-benzyl-4-(methylsulfonyl)-2,6,7,8-tetrahydro-1,2,3,5,6-pentaazaacenaphthylene]",< 50,< 50,< 50,< 50,< 50,< 50
"Fc1ccccc1CCNc1nc2c3c(n[nH]c3n1)CCN2Cc1ccccc1 [Compound 22, 6-benzyl-N-[2-(2-fluorophenyl)ethyl]-2,6,7,8-tetrahydro-1,2,3,5,6-pentaazaacenaphthylen-4-amine]",< 50,< 50,< 50,< 50,< 50,< 50
